Assay: in vitro
Conditions: human, hela cells, % viability

| Structure (SMILES) | viability at 28.5 h, 10 µM [%] |
| --- | --- |
| Cc1ccc2c(c1)cc(C)c1nn(CC(=O)N3CCCC3)c(=O)n12 [CBK283872] | 101 |
| COc1ccc(NC(=O)CSc2ncnc3c2oc2ccccc23)c(OC)c1 [CBK287395] | 87 |
| CN1CCC2(CCC1=O)CC(N)c1ccccc1O2 (stereo not shown) [CBK284456] | 103 |
| CN1CCN(S(=O)(=O)c2ccc(Oc3ccc([N+](=O)[O-])cc3)cc2)CC1 [CBK262248] | 105 |
| CC1=NN(C(=O)c2ccc(Cl)cc2)C(C)(C)C1 [CBK058904] | 111 |
| O=C(NCc1ccc(Cl)cc1)c1cnc2ccc(CN3CCSCC3)cc2c1O [CBK018010] | 97.9 |
| CCCc1cc(C(=O)Nc2nccs2)cs1 [CBK288212] | 83.9 |
| CC1=CC(c2ccccc2)N2N=C(NC(=O)CCCC(=O)O)NC2=N1 (stereo not shown) [CBK287037] | 81.1 |
| N#Cc1c(-c2ccccc2)cc(-c2ccccc2)nc1SCC(=O)O [CBK131684] | 92.6 |
| COc1ccc(-c2nnn(C3CCNCC3)n2)cc1OC [CBK269870C] | 85.3 |
| CC(C)(C)OC(=O)N1CCC(N(CCC(F)(F)F)Cc2ccc(-c3ccc(S(C)(=O)=O)cc3)nc2)CC1 [CBK167262] | 81 |
| Cc1csc(C(Cc2ccsc2)NC(=O)CCn2ccnc2)n1 (stereo not shown) [CBK285391] | 91.2 |
| COc1ccc(Oc2nccnc2N2CCN(Cc3ccc(C(F)(F)F)cc3)CC2)cc1OC [CBK083044T] | 102 |
| N#Cc1c(Nc2cccc(C(F)(F)F)c2)sc(C(=O)c2ccc3c(c2)OCO3)c1N [CBK074399] | 89.2 |
| CO[C@@H](C(=O)Nc1cnc(-c2ccc(F)cc2)c(-c2ccsc2)n1)c1ccccc1 [CBK036803] | 98.4 |
| OC(CNc1cccc2ccccc12)Cn1c2ccc(Br)cc2c2cc(Br)ccc21 (stereo not shown) [CBK261420] | 99.8 |
| CS(=O)(=O)NCCCNc1ccc(C(F)(F)F)cc1[N+](=O)[O-] [CBK263741] | 73.1 |
| CCOC(=O)c1c(NC(=O)CC2Sc3ccccc3NC2=O)sc(C)c1C (stereo not shown) [CBK263349] | 93.5 |
| Cn1nccc1C(=O)C1CCN(C(=O)c2ccccc2F)CC1 [CBK284425] | 94.5 |
| CCc1nc2ccc(C(=O)N3CCNC(=O)C3)cn2c1N(C)C(=O)COc1ccccc1 [CBK145871] | 107 |
| c1ccc(-c2n[nH]cc2-c2cncn2CCCN2CCCCC2)cc1 [CBK281464] | 90.4 |
| CN(C)c1cccc(C(=O)Nc2ccccc2N2CCOCC2)c1 [CBK295184] | 76.2 |

| Structure (SMILES) | viability at 28.5 h, 10 µM [%] |
| --- | --- |
| CC(NC(=O)C1CCN(CCOc2ccccc2)CC1)c1ccccc1 (stereo not shown) [CBK148610] | 91.5 |
| COc1cc(S(=O)(=O)N2CCCN(S(=O)(=O)c3cc(OC)c(Cl)cc3OC)CC2)c(OC)cc1Cl [CBK266489] | 99.4 |
| CS(=O)(=O)Nc1nccnc1OC1CCNCC1 [CBK074265T] | 90.6 |
| Cc1ccc(NC(=O)c2cnc(SCc3ccccn3)n(C)c2=O)cc1 [CBK287673] | 92.9 |
| CN1CCN(S(=O)(=O)c2ccc(NC(=O)c3cc(-c4cccnc4)nc4ccc(Cl)cc34)cc2)CC1 [CBK267734] | 94.2 |
| COc1ccc(C2(C(=O)Nc3ccc(-c4ccccc4OC)cc3)CCOCC2)cc1 [CBK285710] | 89.5 |
| CCN(CC)C(=O)c1ccc(-c2ccc(NC(C)=O)cc2)nc1 [CBK158850] | 101 |
| CCN(CCn1cccn1)c1nc2nonc2nc1N(C)C [CBK306630] | 88.9 |
| Cc1ccc(C=C(c2ccccc2)c2nc3sc(C(=O)O)c(C)c3c(=O)[nH]2)s1 [CBK295638] | 100 |
| Nc1ncc(-c2ccco2)nc1NC1CCOCC1 [CBK063806] | 102 |
| CC1=NN(c2ccc(S(N)(=O)=O)cc2)C(=O)/C1=C/c1ccc(-c2ccc3c(c2)COC3=O)o1 [CBK264678] | 95.6 |
| O=C(CN1C(=O)[C@@H]2CCCN2c2ncccc21)NC1CCCCC1 [CBK286204] | 116 |
| CCC1(CC)Cc2ccccc2-c2nc(NN)n(Cc3ccccc3)c(=O)c21 [CBK263217] | 102 |
| COc1cccc(C(=O)Nc2ccc(NC(=O)C3CC=CCC3C(=O)O)cc2)c1 (stereo not shown) [CBK266316] | 107 |
| C=CCNc1nc(NCCN2CCOCC2)nc(N2CCOCC2)n1 [CBK263074] | 112 |
| O=C(O)c1ccc(S(=O)(=O)c2ccc(O)cc2)cc1 [CBK261411] | 95.2 |
| Cc1ccc(-c2ccc(N3CCN(C)CC3)nc2)cc1C [CBK036937] | 93.7 |
| Cc1nn(C)c(C)c1CCC(=O)N1CCc2ncc(Cl)cc2C1 [CBK284851] | 114 |
| COc1ccccc1CNC(=O)c1cc(-c2ccccc2)nc2ccccc12 [CBK294458] | 104 |
| COCC1OC(n2cc(C)c(=O)[nH]c2=O)CC1O (stereo not shown) [CBK201338] | 94.5 |
| CCN(CC)C(=O)C1CCCN(C(=O)NCC2COc3ccccc3O2)C1 (stereo not shown) [CBK156116] | 81.4 |
| CN(CCc1ccccn1)C(=O)C1CN(C(=O)C2CC23CCC3)C1 (stereo not shown) [CBK281969] | 104 |

| Structure (SMILES) | viability at 28.5 h, 10 µM [%] |
| --- | --- |
| COc1ccc(-c2nnc(SCC(=O)c3ccc(C)o3)o2)cc1 [CBK268334] | 88 |
| COc1cc(NC(=O)CC2SC(NC3CCCCC3)=NC2=O)c(OC)cc1Cl (stereo not shown) [CBK059497] | 96.2 |
| COc1cc(-c2ccc3c(c2)COC2(CCCNC2)O3)cc(OC)c1OC (stereo not shown) [CBK092299] | 93 |
| Cc1cc2nc3c(nc2cc1C)CCNCC3 [CBK012302] | 91.1 |
| Cc1cc(C(=O)CSc2nnc(C3CC3)[nH]2)c(C)n1-c1cccc(C(F)(F)F)c1 [CBK295310] | 80.6 |
| Cc1c(-c2noc(-c3ccc4c(c3)OCO4)n2)nnn1Cc1ccccc1 [CBK288609] | 116 |
| O=C(c1cccnc1)C1CCN(C(=O)c2ccccc2F)CC1 [CBK283853] | 95.1 |
| CC1(C)CN(Cc2cccc(-c3ccccn3)c2)CCS1(=O)=O [CBK304284] | 99.8 |
| O=C(O)CCc1ccc(S(=O)(=O)N2CCOCC2)cc1 [CBK287224] | 90.1 |
| c1ccc2c(c1)CSCC2Oc1cncc(N2CCNCC2)n1 (stereo not shown) [CBK172356T] | 94.9 |
| COc1c(C)cccc1C(=O)N1CCCC(c2ccc(Nc3nc(C)cc(C)n3)cn2)C1 (stereo not shown) [CBK285989] | 98.5 |
| CC(C)CNc1nc(-c2cccnc2)cnc1N [CBK063780] | 99.5 |
| COC(=O)c1cnc(Sc2ccc(Cl)cc2)nc1C(F)(F)F [CBK009299] | 95.9 |
| Cc1ccc(CNC(=O)c2nnc(C(=O)Nc3cccc(Cl)c3)s2)o1 [CBK294404] | 95.2 |
| O=C(Nc1ccc(=O)n2c1[C@@H]1C[C@@H](CN(C(=O)c3ccc(F)cc3)C1)C2)c1cncnc1 [CBK288713] | 112 |
| O=C(c1cccc(Cn2cccn2)c1)N1CCc2sccc2C1c1ccccc1 (stereo not shown) [CBK285552] | 85.8 |
| CCCN1CC(NS(=O)(=O)c2cc(OC)c(Cl)cc2OC)CC1=O (stereo not shown) [CBK307581] | 96.7 |
| Cc1ccccc1-n1ccn(C(=O)CCC2CCCC2)c1=O [CBK106571] | 106 |
| CCOC(=O)Cc1csc(SCC(=O)N2CCc3ccccc32)n1 [CBK306190] | 88.8 |
| O=C1CC2(CCN(C(=O)c3ccccn3)CC2)Oc2ccc(Br)cc21 [CBK156443] | 93.7 |
| CN1CCC(N(C2CC2)S(=O)(=O)c2ccc(NC(=O)C(C)(C)C)cc2)CC1 [CBK021115] | 99 |
| O=C(CSc1nnc(Cc2cccc3ccccc23)n1-c1ccccc1)N1CCc2ccccc21 [CBK266697] | 99.1 |

| Structure (SMILES) | viability at 28.5 h, 10 µM [%] |
| --- | --- |
| COc1ncc(-c2nccnc2NCc2cccc(OC)c2OC)c(OC)n1 [CBK037506] | 76.9 |
| O=C(NC(c1ccccc1)c1ccco1)C1CCN(C(=S)NCCc2ccccc2)CC1 (stereo not shown) [CBK060412] | 94.4 |
| Cc1nn(CCCC(=O)Nc2sc3c(c2C#N)CCC(C(C)(C)C)C3)c(C)c1[N+](=O)[O-] (stereo not shown) [CBK268982] | 103 |
| CC(C)c1cc(C(=O)NC(c2ccccc2)c2ccnn2C)n(C)n1 (stereo not shown) [CBK282535] | 102 |
| CCN1CC(C(=O)Nc2nc3c(s2)CCCCCC3)CC1=O (stereo not shown) [CBK281526] | 84.2 |
| CN(C)CCN(C)c1cncc(-c2ccc(F)cc2F)n1 [CBK065652] | 90.9 |
| COc1ccc(CN2CCCC(c3nc(C)n4ccccc34)C2)cc1 (stereo not shown) [CBK282984] | 94.6 |
| O=C(CCSc1ccc(Cl)cc1)Nc1ccc(S(=O)(=O)N2CCOCC2)cc1 [CBK264133] | 95.5 |
| NC(=O)CN1CCC(Oc2cncc(OCCN3CCOCC3)n2)C1 (stereo not shown) [CBK084488] | 111 |
| Cc1ccc(-n2cnnn2)c(S(=O)(=O)N2CCOCC2)c1 [CBK268297] | 102 |
| CC1CCc2c(sc(Nc3nc4c(F)cccc4s3)c2C(N)=O)C1 (stereo not shown) [CBK287477] | 102 |
| O=S(=O)(c1cccs1)N1CCc2ccccc2C1 [CBK044531] | 113 |
| CS(=O)(=O)Nc1ncc(-c2ccco2)cc1C(=O)Nc1ccon1 [CBK076512] | 89.6 |
| CN(C)CCCO/N=C1\CC2(CCCC2)c2ccccc21 [CBK013331] | 80.7 |
| Nc1ncc(-c2cccc(Br)c2)nc1NC1CCOCC1 [CBK063854] | 108 |
| COc1cccc(CCC(=O)n2ccn(CCCOc3ccccc3)c2=O)c1 [CBK106565] | 104 |
| CCOC(=O)Cn1nc(C)n2c(cc3sc(C)cc32)c1=O [CBK284096] | 82.3 |
| O=C(NC(c1ccccc1)c1ccccc1)N1CCN(c2ccccc2)CC1 [CBK155177] | 90.7 |
| CC(N)(Cc1ccc(Oc2ncc(C(F)(F)F)cc2Cl)cc1)C(=O)O (stereo not shown) [CBK161647] | 91.9 |
| Cc1ccc(NC(=O)CSc2nc3[nH]ncc3c(=O)[nH]2)cc1 [CBK287675] | 93.5 |
| CCOc1cc(/C=N/O)ccc1OC(=O)c1cccc([N+](=O)[O-])c1 [CBK090036] | 107 |

Same assay, conditions: human, hela cells, % viability, bulk resorufin, single well

| Structure (SMILES) | viability at 28.5 h, 10 µM [%] |
| --- | --- |
| CN1C(=O)C(=Cc2ccc(-c3cccc([N+](=O)[O-])c3)o2)C(=O)N(C)C1=S [CBK263903] | 95.1 |

From publication PMC12040169 (PLOS Biology, 2025)
